This is an account of results in patent US20210246115A1 (Bioimics AB, priority 2017, published 2021).

For test [1], the system named is Enterococcus faecalis (ATCC29212). Briefly: MIC, broth microdilution (CLSI), Enterococcus faecalis. Format: cell-based.
Test [2] has as its system Pseudomonas aeruginosa (ATCC27853). Briefly: MIC, broth microdilution (CLSI), Pseudomonas aeruginosa. Format: cell-based.
Test [3] concerns Staphylococcus aureus subsp. aureus (ATCC29213). Briefly: MIC, broth microdilution (CLSI), Staphylococcus aureus ATCC29213. Format: cell-based. The note with it: Staphylococcus aureus. Background: Broth dilution looks for growth in wells or tubes with falling amounts of substance.
Test [4] concerns E. coli RNase P RNA, M1 RNA. Description: Inhibition of bacterial RNase P activity, IC50 determination (cleavage of pATSerUG by M1 RNA). The note with it: NI: No inhibition. Format: biochemical.
For test [5], the system named is S. aureus MRSA ATCC 33591. Description: MIC, S. aureus MRSA ATCC 33591. The test is classed as cell-based. Particulars: Staphylococcus aureus, read-out: S. aureus MRSA ATCC 33591 MIC.
In test [6] the test system is E. faecium ATCC 700221. Description: MIC, E. faecium ATCC 700221. Format: cell-based. Particulars: Enterococcus faecium.
The test system of test [7] is S. pneumoniae ATCC 49619. Description: MIC, S. pneumoniae ATCC 49619. Format: cell-based. Particulars: Streptococcus pneumoniae, ATCC49619; Table XIV A. Gram-positive bacteria.
Test [8] relates to E. coli JW5503 (efflux defective). Description: MIC, E. coli JW5503 (efflux defective). The test is classed as cell-based. The note with it: Escherichia coli, read-out: E. coli JW5503 (efflux defective) MIC.
For test [9], the system named is K. pneumoniae ATCC 43816. Description: MIC, K. pneumoniae ATCC 43816. Format: cell-based. The note with it: Klebsiella pneumoniae, ATCC43816; Table XIV B. Gram-negative bacteria.
In test [10] the test system is H. influenzae ATCC 49247. Description: MIC, H. influenzae ATCC 49247. Particulars: Haemophilus influenzae, ATCC49247; Table XIV B. Gram-negative bacteria. The test is classed as cell-based.
The test system of test [11] is A. baumannii ATCC 17978. Briefly: MIC, A. baumannii ATCC 17978. The note with it: Acinetobacter baumannii, ATCC17978; Table XIV B. Gram-negative bacteria. Format: cell-based.
Test [12] concerns P. aeruginosa NTUH974 (MDR). Description: MIC, P. aeruginosa NTUH974 (MDR). Format: cell-based. Particulars: Pseudomonas aeruginosa, read-out: P. aeruginosa NTUH974 (MDR) MIC.
The test system of test [13] is N. gonorrhoeae ATCC 700825. Description: MIC, N. gonorrhoeae ATCC 700825. Format: cell-based. The note with it: Neisseria gonorrhoeae, ATCC700825; Table XIV B. Gram-negative bacteria.
Test [14] deals with Escherichia coli (ATCC25922). Briefly: MIC, broth microdilution (CLSI), Escherichia coli. The note with it: Escherichia coli.
Test [15] concerns Staphylococcus aureus (ATCC25923). Description: MIC, broth microdilution (CLSI), Staphylococcus aureus ATCC25923. Particulars: Staphylococcus aureus, ATCC25923, read-out: S. aureus ATCC 25923 MIC.
Setting [16] is: ATCC25922, read-out: E. coli ATCC 25922 MIC, Table XIII.
Where [17] appears, read: ATCC25922, read-out: E. coli ATCC 25922 MIC, Table XIV B. Gram-negative bacteria.
[18] abbreviates: ATCC29213, Table XIII, read-out: S. aureus ATCC 29213 MIC.
Where [19] appears, read: ATCC29213, read-out: S. aureus ATCC 29213 MIC, Table XIII.

pIC50: −log10 of the molar value. Counter-ions that a name gives are not always drawn. Like-named read-outs stand apart in the source and are kept apart here.

In the case of `Cc1cccc(C(CCN2CCC(N)CC2)c2cn(CC3CCCCC3)c3ccccc23)c1` (centres unmarked) [Compound 216, 1-(3-(1-(cyclohexylmethyl)-1H-indol-3-yl)-3-(m-tolyl)propyl)piperidin-4-amine hydrochloride salt], the MIC in [1] (ATCC29212, read-out: E. faecalis ATCC 29212 MIC) turned out to be 4 µg/mL; in [2] (ATCC27853, read-out: P. aeruginosa ATCC 27853 MIC), 64 µg/mL; in test [3] (ATCC29213, read-out: S. aureus ATCC 29213 MIC, Table XIV A. Gram-positive bacteria) it was 4 µg/mL; in test [5] it was 4 µg/mL; in test [6] (ATCC700221, read-out: E. faecium ATCC 700221 MIC), 2 µg/mL; in test [7], 8 µg/mL. Besides, the MIC in test [8] stood at 4 µg/mL; in test [9] it was 128 µg/mL; in [10], 4 µg/mL; in test [11], 8 µg/mL; in test [12], 64 µg/mL; in test [13] it was 2 µg/mL. The MIC turned out to be 4 µg/mL in [14] (setting [16]), 8 µg/mL in [14] (setting [17]) and 4 µg/mL in test [15]. In test [4], this compound showed a pIC50 of 4.60.

On to `Cl.O=C(CCC1C(=O)N(CC2CCCCC2)c2ccccc21)NC1CCNCC1` (centres unmarked) [Compound 275, 3-(1-(cyclohexylmethyl)-2-oxoindolin-3-yl)-N-(piperidin-4-yl) propanamide hydrochloride salt], for which the MIC in [3] (setting [18]) is more than 128 µg/mL; in test [14] (setting [16]) it was more than 128 µg/mL; in test [15], more than 512 µg/mL. In addition, in test [4], the pIC50 was 4.10.

Turning to `Cc1cccc(C(CCNCC2CNCCO2)c2cn(CC3CCCCC3)c3ccccc23)c1` (centres unmarked) [Compound 288, 3-(1-(cyclohexylmethyl)-1H-indol-3-yl)-N-(morpholin-2-ylmethyl)-3-(m-tolyl)propan-1-amine hydrochloride salt], the MIC stood at 128 µg/mL in [3] (setting [19]), 4 µg/mL in [14] (setting [16]) and 4 µg/mL in [15]. Further, in test [4], the pIC50 is 4.28.

Take `Cc1cccc(C(CCNC2CCNCC2)c2cn(CC3CCOCC3)c3ccc(Br)cc23)c1` (centres unmarked) [Compound 293, N-(3-(5-bromo-1-((tetrahydro-2H-pyran-4-yl)methyl)-1H-indol-3-yl)-3-(m-tolyl)propyl) piperidin-4-amine hydrochloride salt]: the MIC in [3] (setting [19]) is 8 µg/mL; in test [14] (setting [16]), 4 µg/mL; in [15], 5 µg/mL. Further, the pIC50 in test [4] is 4.15.

For the compound `Cc1cccc(C(CCN[C@H]2CC[C@H](N)CC2)c2cn(CC3CCCC3)c3ccccc23)c1` (stereo partly drawn) [Compound 164, (1R,4R)-N1-(3-(1-(cyclopentylmethyl)-1H-indol-3-yl)-3-(m-tolyl)propyl)cyclohexane-1,4-diamine hydrochloride salt], the MIC in test [3] (setting [18]) came to 8 µg/mL; in test [14] (setting [16]), 8 µg/mL; in test [15], 4 µg/mL. For the same compound, the negative logarithm of the IC50 (pIC50) in test [4] was 5.02.

`Cc1cccc(C(CC(=O)NC2CCNCC2)c2cn(CC3CCCCC3)c3ccc(C(=O)O)cc23)c1.Cl` (centres unmarked) [Compound 297, 1-(cyclohexylmethyl)-3-(3-oxo-3-(piperidin-4-ylamino)-1-(m-tolyl)propyl)-1H-indole-5-carboxylic acid hydrochloride salt]: the MIC is 32 µg/mL in test [3] (setting [18]), more than 128 µg/mL in [14] (setting [16]) and 34 µg/mL in [15]. Also, the negative logarithm of the IC50 (pIC50) in test [4] was 4.42.

As for `Cc1cccc(C(CCNC2CCCCC2)c2cn(CC3CCCCC3)c3ccccc23)c1.Cl` (centres unmarked) [Compound 215, N-(3-(1-(cyclohexylmethyl)-1H-indol-3-yl)-3-(m-tolyl)propyl) cyclohexanamine hydrochloride salt], the MIC in test [1] (ATCC29212, Table XIV A. Gram-positive bacteria, read-out: E. faecalis ATCC 29212 MIC) was 2 µg/mL; in test [2] (ATCC27853, Table XIV B. Gram-negative bacteria, read-out: P. aeruginosa ATCC 27853 MIC) it was more than 128 µg/mL; in test [3] (setting [18]) it was 2 µg/mL; in test [3] (ATCC29213, Table XIV A. Gram-positive bacteria, read-out: S. aureus ATCC 29213 MIC), 2 µg/mL; in test [5] (Table XIV A. Gram-positive bacteria), more than 128 µg/mL; in test [6] (ATCC700221, Table XIV A. Gram-positive bacteria, read-out: E. faecium ATCC 700221 MIC) it was 1 µg/mL. Further, the MIC in test [7] was 2 µg/mL; in test [8] it was 64 µg/mL; in [9] it was more than 128 µg/mL; in test [10], 16 µg/mL; in test [11], more than 128 µg/mL; in test [12] (Table XIV B. Gram-negative bacteria), more than 128 µg/mL. Also, the MIC was 1 µg/mL in test [13], more than 128 µg/mL in [14] (setting [16]), more than 128 µg/mL in test [14] (setting [17]) and 2 µg/mL in test [15].

As to `Cl.N[C@H]1CC[C@H](NC(=O)CC(c2cncc3ccccc23)c2cn(CC3CCCCC3)c3ccccc23)CC1` (stereo partly drawn) [Compound 191, N-((1R,4R)-4-aminocyclohexyl)-3-(1-(cyclohexylmethyl)-1H-indol-3-yl)-3-(isoquinolin-4-yl)propanamide hydrochloride salt], the MIC in [3] (setting [18]) amounted to 8 µg/mL; in [14] (setting [16]), 8 µg/mL; in test [15], 5 µg/mL. In test [4], the pIC50 was 5.15.

Regarding `Cc1cccc(C(CCNCCCN)c2cn(C3CCCC3)c3ccccc23)c1.Cl.Cl` (centres unmarked) [Compound 334, N1-(3-(1-cyclopentyl-1H-indol-3-yl)-3-(m-tolyl)propyl)propane-1,3-diamine hydrochloride salt], the MIC in [3] (setting [18]) and in test [14] (setting [16]) was 8 µg/mL in each case. In [4], this compound showed a pIC50 of 4.17.

Take `CCC(CC)C(CCNCCCN)c1cn(C2CCCCC2)c2ccccc12.Cl.Cl` (centres unmarked) [Compound 416, N1-(3-(1-cyclohexyl-1H-indol-3-yl)-4-ethylhexyl)propane-1,3-diamine hydrochloride salt]: the MIC in [3] (setting [18]) stood at 4 µg/mL; in [14] (setting [16]), 2 µg/mL. The same compound gave a pIC50 in test [4] of 4.59.

Regarding `Cc1cccc(C(CC(=O)NC2CCNCC2)c2cn(CCC3CCCCC3)c3ccccc23)c1.Cl` (centres unmarked) [Compound 109, 3-(1-(2-cyclohexylethyl)-1H-indol-3-yl)-N-(piperidin-4-yl)-3-(m-tolyl)propanamide hydrochloride salt], the MIC in test [3] (setting [18]) was determined as 4 µg/mL; in test [14] (setting [16]) it was 128 µg/mL; in [15], 4 µg/mL. For the same compound, the pIC50 in [4] was 5.43.

`NC1CCC(NCCC(c2ccc(F)c(F)c2)c2cn(CC3CCCCC3)c3ccccc23)CC1` [Compound 161, (1S,4S)-N1-(3-(1-(cyclohexylmethyl)-1H-indol-3-yl)-3-(3,4-difluorophenyl)propyl) cyclohexane-1,4-diamine hydrochloride salt]: the MIC in [3] (setting [18]), in test [14] (setting [16]) and in [15] was 2 µg/mL in each case. Moreover, the pIC50 in [4] is 4.92.

On to `Cc1cccc(C(CCNCC2CNCCO2)c2cn(CC3CCCCC3)c3ccc(Br)cc23)c1.Cl` (centres unmarked) [Compound 289, 3-(5-bromo-1-(cyclohexylmethyl)-1H-indol-3-yl)-N-(morpholin-2-ylmethyl)-3-(m-tolyl)propan-1-amine hydrochloride salt], for which the figures for the MIC in [3] (setting [18]), in test [14] (setting [16]) and in test [15] were 64 µg/mL, 16 µg/mL and 2 µg/mL, respectively. This compound also showed a pIC50 in test [4] of 4.82.

For `Cl.c1ccc(-c2ccc(CNCCc3c[nH]c4ccccc34)cc2)cc1` [Compound 24, N-([1,1′-biphenyl]-4-ylmethyl)-2-(1H-indol-3-yl)ethan-1-amine hydrochloride salt], the MIC in test [3] (setting [18]) is 6 µg/mL; in [14] (setting [16]), 46 µg/mL; in test [15] it was 6 µg/mL.

With `Cc1cccc(C(CCNCCCN)c2cn(C3CCCCC3)c3ccc(-c4ccncc4)cc23)c1.Cl.Cl` (centres unmarked) [Compound 412, N1-(3-(1-cyclohexyl-5-(pyridin-4-yl)-1H-indol-3-yl)-3-(m-tolyl)propyl) propane-1,3-diamine hydrochloride salt], the MIC was 2 µg/mL in test [3] (setting [18]) and 4 µg/mL in test [14] (setting [16]). In test [4], the negative-log IC50 (pIC50) is 4.74.

Take `Cc1cccc(C(CCN[C@H]2CC[C@H](N)CC2)c2cn(C3CCCCC3)c3ccc(-c4ccnn4C)cc23)c1.Cl.Cl` (stereo partly drawn) [Compound 409, (1R,4R)-N1-(3-(1-cyclohexyl-5-(1-methyl-1H-pyrazol-5-yl)-1H-indol-3-yl)-3-(m-tolyl)propyl)cyclohexane-1,4-diamine hydrochloride salt]: the MIC in [3] (setting [18]) turned out to be 4 µg/mL; in test [14] (setting [16]), 16 µg/mL. In test [4], this compound had a pIC50 of 4.41.

As a reminder, the pIC50 is −log10 of the IC50, conventionally taken in molar units. Higher therefore signals a small IC50.
